Results published in US20220364989A1, “METHOD FOR MEASURING PHOTOTOXICITY OR PHOTOALLERGY AND REAGENT FOR USE THEREIN” (FUJIFILM Corporation, priority 2018, published 2022).

Key:
[1] = reported in References 1 and 2; cited from earlier work
[2] = NAC depletion under and without ultraviolet irradiation, HPLC with UV detection (281 nm)
[3] = NAL depletion under and without ultraviolet irradiation, HPLC with UV detection (281 nm)
[4] = Average score of NAC and NAL depletion and phototoxicity or photoallergy determination, UV detection
[5] = Average score of NAC and NAL depletion and phototoxicity or photoallergy determination, fluorescence detection; conditions: for Average score (%) / Average score (%) without light irradiation: without light irradiation
[6] = NAC depletion under and without ultraviolet irradiation, HPLC with fluorescence detection (284 nm excitation, 333 nm fluorescence); conditions: for NAC Depletion (%) / NAC Depletion (%) without light irradiation: without light irradiation
[7] = NAL depletion under and without ultraviolet irradiation, HPLC with fluorescence detection (284 nm excitation, 333 nm fluorescence); conditions: for NAL Depletion (%) / NAL Depletion (%) without light irradiation: without light irradiation
[8] = 25° C. 24 hours light-shielded, test substance solution 1 mmol/L
[9] = 2,000 μW/cm^2 for 1 hour then 25° C. 23 hours, test substance solution 1 mmol/L
[10] = average of NAC and NAL depletion
[11] = under light irradiation, photoallergic compound concentration 0.05 mg/mL
[12] = under light irradiation, photoallergic compound concentration 0.2 mg/mL
[13] = under light irradiation, photoallergic compound concentration 0.5 mg/mL
[14] = without light irradiation, photoallergic compound concentration 0.05 mg/mL
[15] = without light irradiation, photoallergic compound concentration 0.2 mg/mL
[16] = without light irradiation, photoallergic compound concentration 0.5 mg/mL
[17] = photoallergic compound concentration 0.05 mg/mL
[18] = photoallergic compound concentration 0.2 mg/mL
[19] = photoallergic compound concentration 0.5 mg/mL

Compound: [Na+].[O-][n+]1ccccc1[S-] [compound 26]
- In vivo photoallergy [1]: Positive
- Difference in depletion (under light irradiation - without light irradiation) NAC (%) [2]: 89.3%
- NAC Depletion (%) without light irradiation [2, 8]: 10.7%
- NAC Depletion (%) under light irradiation [2, 9]: 100.0%
- NAL Depletion (%) without light irradiation [3, 8]: −34.1%
- NAL Depletion (%) under light irradiation [3, 9]: 21.9%
- Average score (%) under light irradiation [4, 10]: 61.0%
- Difference in depletion (under light irradiation - without light irradiation) Average score (%) ([5]; single compound): 52.4%
- Average score (%) ([5]; single compound): 4.2%
- Difference in depletion (under light irradiation - without light irradiation) NAC (%) ([6]; single compound): 91.6%
- NAC Depletion (%) ([6]; single compound): 8.4%
- Difference in depletion (under light irradiation - without light irradiation) NAL (%) ([7]; single compound): 13.3%
- NAL Depletion (%) ([7]; single compound): 0.0%

Compound: CC(O)CCO (stereo not shown) [compound 46]
- Difference in depletion (under light irradiation - without light irradiation) NAC (%) [2]: 0.7%
- NAC Depletion (%) without light irradiation [2, 8]: 0.0%
- NAC Depletion (%) under light irradiation [2, 9]: 0.7%
- Difference in depletion (under light irradiation - without light irradiation) NAL (%) [3]: 0.0%
- NAL Depletion (%) without light irradiation [3, 8]: 0.0%
- NAL Depletion (%) under light irradiation [3, 9]: 0.0%
- Difference in depletion (under light irradiation - without light irradiation) Average score (%) [4]: 0.4%
- Average score (%) under light irradiation [4, 10]: 0.4%
- Average score (%) without light irradiation [4, 10]: 0.0%
- Difference in depletion (under light irradiation - without light irradiation) Average score (%) ([5]; single compound): 0.1%
- Average score (%) ([5]; single compound): 0.1%
- Difference in depletion (under light irradiation - without light irradiation) NAC (%) ([6]; single compound): 0.2%
- NAC Depletion (%) ([6]; single compound): 0.0%
- Difference in depletion (under light irradiation - without light irradiation) NAL (%) ([7]; single compound): −0.1%
- NAL Depletion (%) ([7]; single compound): 0.1%

Compound: Tetrachlorosalicylanilide [1-4]
- NAC Depletion (%) under light irradiation [2, 11]: (58.0) %
- NAC Depletion (%) under light irradiation [2, 12]: (−96.9) %
- NAC Depletion (%) under light irradiation [2, 13]: (−338.2) %
- NAC Depletion (%) without light irradiation [2, 14]: 34.2%
- NAC Depletion (%) without light irradiation [2, 15]: 70.1%
- NAC Depletion (%) without light irradiation [2, 16]: 93.7%
- Difference in depletion (under light irradiation - without light irradiation) NAL (%) [3, 17]: 30.3%
- Difference in depletion (under light irradiation - without light irradiation) NAL (%) [3, 18]: 66.5%
- Difference in depletion (under light irradiation - without light irradiation) NAL (%) [3, 19]: 78.7%
- NAL Depletion (%) under light irradiation [3, 11]: 30.1%
- NAL Depletion (%) under light irradiation [3, 12]: 67.1%
- NAL Depletion (%) under light irradiation [3, 13]: (81.3) %
- NAL Depletion (%) without light irradiation [3, 14]: −0.2%
- NAL Depletion (%) without light irradiation [3, 15]: 0.6%
- NAL Depletion (%) without light irradiation [3, 16]: 2.6%
- Average score (%) under light irradiation [4, 11]: 44.0%
- Average score (%) under light irradiation [4, 12]: −14.9%
- Average score (%) under light irradiation [4, 13]: −128.5%
- Average score (%) without light irradiation [4, 14]: 17.0%
- Average score (%) without light irradiation [4, 15]: 35.4%
- Average score (%) without light irradiation [4, 16]: 48.2%
- Difference in depletion (under light irradiation - without light irradiation) Average score (%) [5, 17]: 54.5%
- Difference in depletion (under light irradiation - without light irradiation) Average score (%) [5, 18]: 58.9%
- Difference in depletion (under light irradiation - without light irradiation) Average score (%) [5, 19]: 54.3%
- Average score (%) under light irradiation [5, 17]: 65.4%
- Average score (%) under light irradiation [5, 18]: 85.2%
- Average score (%) under light irradiation [5, 19]: 93.0%
- Average score (%) without light irradiation [5, 17]: 10.9%
- Average score (%) without light irradiation [5, 18]: 26.2%
- Average score (%) without light irradiation [5, 19]: 38.7%
- Difference in depletion (under light irradiation - without light irradiation) NAC (%) [6, 17]: 76.5%
- Difference in depletion (under light irradiation - without light irradiation) NAC (%) [6, 18]: 45.3%
- Difference in depletion (under light irradiation - without light irradiation) NAC (%) [6, 19]: 21.5%
- NAC Depletion (%) under light irradiation [6, 17]: 98.2%
- NAC Depletion (%) under light irradiation [6, 18]: 97.5%
- NAC Depletion (%) under light irradiation [6, 19]: 97.2%
- NAC Depletion (%) without light irradiation [6, 17]: 21.7%
- NAC Depletion (%) without light irradiation [6, 18]: 52.2%
- NAC Depletion (%) without light irradiation [6, 19]: 75.6%
- Difference in depletion (under light irradiation - without light irradiation) NAL (%) [7, 17]: 32.5%
- Difference in depletion (under light irradiation - without light irradiation) NAL (%) [7, 18]: 72.6%
- Difference in depletion (under light irradiation - without light irradiation) NAL (%) [7, 19]: 87.1%
- NAL Depletion (%) under light irradiation [7, 17]: 32.5%
- NAL Depletion (%) under light irradiation [7, 18]: 72.9%
- NAL Depletion (%) under light irradiation [7, 19]: 88.9%
- NAL Depletion (%) without light irradiation [7, 17]: 0.0%
- NAL Depletion (%) without light irradiation [7, 18]: 0.2%
- NAL Depletion (%) without light irradiation [7, 19]: 1.8%
